According to the supplement of paper PMC10307832:

Assays:
Assay in all cases: relative viability (nuclei count vs DMSO), 5 days (fraction); higher = more cells survive
[1] = compound: Cc1cc([C@@H](C)Nc2ccccc2C(=O)O)c2nc(N3CCOCC3)cc(=O)n2c1 [AZD6482] + O=C(CCCCCCC(=O)Nc1ccccc1)NO [Vorinostat] (partner 1 µM)
How it was run: (§1)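 Nuclei were stained with Hoechst during a one-step fixation (final 0.05% Triton X-100, 1% formaldehyde, 1 ug/ml Hoechst) carried out 5 days after dosing, then counted on 4× images. The cells, lung cancer lines in 1536-well plates, had been dosed by pin tool the day after seeding with one drug alone or a fixed anchor-drug dose plus five library-drug doses (not always all listed) in √10 steps. Relative viability is the nuclei count in treated wells divided by that in vehicle wells, and each value is the median of duplicate plates.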

[2] = compound: COc1cc2nc(N3CCCN(C)CC3)nc(NC3CCN(Cc4ccccc4)CC3)c2cc1OC + O=C(c1cc(Cc2n[nH]c(=O)c3ccccc23)ccc1F)N1CCN(C(=O)C2CC2)CC1 [Olaparib] (partner 8 µM)
How it was run: as §1

[3] = compound: COc1cc2nc(N3CCCN(C)CC3)nc(NC3CCN(Cc4ccccc4)CC3)c2cc1OC + Nc1nc2[nH]cc(CCc3ccc(C(=O)N[C@@H](CCC(=O)O)C(=O)O)cc3)c2c(=O)[nH]1 [Pemetrexed] (partner 0.2 µM)
How it was run: as §1

[4] = compound: Cc1cc([C@@H](C)Nc2ccccc2C(=O)O)c2nc(N3CCOCC3)cc(=O)n2c1 [AZD6482] + CS(=O)(=O)N1CCN(Cc2cc3nc(-c4cccc5[nH]ncc45)nc(N4CCOCC4)c3s2)CC1 [Pictilisib] (partner 1 µM)
How it was run: as §1

Cell Line	relative viability ([1]; first compound 0.08 µM)	relative viability ([1]; first compound 0.253 µM)	relative viability ([1]; first compound 0.8 µM)	relative viability ([1]; first compound 2.53 µM)	relative viability ([1]; first compound 8 µM)	relative viability ([2]; first compound 0.2 µM)	relative viability ([2]; first compound 0.6325 µM)	relative viability ([2]; first compound 2 µM)	relative viability ([2]; first compound 6.325 µM)	relative viability ([3]; first compound 0.2 µM)	relative viability ([3]; first compound 0.6325 µM)	relative viability ([3]; first compound 2 µM)	relative viability ([3]; first compound 6.325 µM)	relative viability ([4]; first compound 0.08 µM)	relative viability ([4]; first compound 0.253 µM)	relative viability ([4]; first compound 0.8 µM)	relative viability ([4]; first compound 2.53 µM)	relative viability ([4]; first compound 8 µM)
NCI-H838	0.631	0.701	0.664	0.54	0.538	0.762	0.717	0.791	0.777	0.259	0.263	0.293	0.243	0.461	0.464	0.442	0.339	0.487
NCI-H1355	0.446	0.541	0.674	0.447	0.407	0.714	0.743	0.862	0.79	1.06	1.03	1.01	0.945	0.302	0.43	0.425	0.244	0.453
NCI-H1395	0.584	0.402	0.559	0.385	0.47	0.444	0.473	0.445	0.433	0.892	0.84	0.824	0.635	0.549	0.459	0.536	0.422	0.438
NCI-H1437	0.955	0.921	0.997	0.738	0.468	0.626	0.628	0.623	0.574	0.279	0.293	0.36	0.324	0.471	0.326	0.473	0.319	0.392
NCI-H1650	0.512	0.629	0.805	0.437	0.632	0.773	0.787	0.886	0.648	0.389	0.407	0.441	0.313	0.55		0.664	0.398	0.843
NCI-H1651	0.602	0.502	0.56	0.464	0.524	0.181	0.149	0.157	0.17	0.623	0.598	0.597	0.624	0.596	0.58	0.569	0.432	0.508
NCI-H1666	0.848	1.04	1.04	0.813	1.02	0.716	0.754	0.756	0.751	0.885	0.785	0.766	0.872	0.437	0.547	0.558	0.437	0.405
